Reference: patent US12325696B2, “Indazole derivative, preparation method therefor, and pharmaceutical application thereof” (JIANGSU HENGRUI MEDICINE CO., LTD., priority 2019, dated 2025)
Each block holds one compound with its values, some of them ahead of it.

How the values were obtained:
[1] = test system: estrogen receptor reporter gene; assay: Inhibition of estrogen receptor reporter gene activity (ERE-luc luciferase) in MCF7/ERE-luc cells; assay type: cell-based; conditions: Homo sapiens, 0.1 nM β-estradiol, 20 hours, read-out: IC50 of inhibitory activity on the activity of the estrogen receptor reporter gene
Method: MCF7 cells MCF7/ERE-luc (ATCC, HTB-22) expressing the luciferase reporter gene ERE-luc (synthesized by GENEWIZ, Inc.) controlled by the estrogen receptor response element were cultured in MEM (GE Healthcare, SH30024.01) medium containing 10% fetal bovine serum and 500 µg/ml G418. On the first day of the experiment, MCF7/ERE-luc cells were seeded in a 96-well plate with incomplete MEM medium containing 10% fetal bovine serum treated with activated charcoal (BioSun, BS-0004-500) at a density of 30,000 cells/well (100 μl of cell suspension per well), and the plate was incubated in a cell incubator at 37° C. and 5% CO2 overnight. On the second day, 10 μl of β-estradiol (SIGMA, E2758-250MG) solution formulated with the above incomplete medium or test compound solution of different concentrations formulated with the above incomplete medium was added to each well, wherein the final concentration of β-estradiol was 0.1 nM, and the final concentrations of the compound were nine concentration points obtained by a 10-fold gradient dilution starting from 10 μM, a blank control containing 0.5% DMSO was set, and the plate was incubated in a cell incubator at 37° C. and 5% CO2 for 20 hours. On the third day, the 96-well plate was taken out, and 100 μl of ONE-Glo™ Luciferase Assay system (Promega, E6110) was added to each well to determine the activity of luciferase. The plate was left to stand at room temperature for 3 minutes until the cells were fully lysed, and the luminescence signal values were measured using a multi-label microplate reader (PerkinElmer, VICTOR 3). The IC50 values of the inhibitory activity of the compounds were calculated using Graphpad Prism software based on the concentrations and luminescence signal values of the compounds.
The inhibitory effect of the compounds of the present disclosure on the activity of the estrogen receptor reporter gene was determined by the above test. A graph of the chemiluminescence signal values versus the logarithmic concentrations of the compound was made using Graghpad Prism.

[2] = test system: MCF7 cell; assay: Inhibition of proliferation of MCF7 cell (CellTiter-Glo, 144 hours); assay type: cell-based; conditions: Homo sapiens; for IC50: MCF7, CellTiter-Glo, read-out: IC50 of the inhibitory effect on the proliferation of MCF7 cell; for Emax: MCF7 cell proliferation, read-out: Maximum inhibition
Method: (§1) MCF7 cells (ATCC, HTB-22) were cultured in MEM (GE Healthcare, SH30024.01) complete medium containing 10% fetal bovine serum. On the first day of the experiment, MCF7 cells were seeded in a 96-well plate with the complete medium at a density of 3,000 cells/well (100 μl of cell suspension per well), and the plate was incubated in a cell incubator at 37° C. and 5% CO2 overnight. On the second day, the medium in each well was replaced with 135 μl of MEM incomplete medium containing 2% fetal bovine serum. 15 μl of test compound solution of different concentrations formulated with the incomplete medium was added to each well, wherein the final concentrations of the compound were nine concentration points obtained by a 4-fold gradient dilution starting from 100 nM. A blank control containing 0.5% DMSO was set. The plate was incubated in a cell incubator at 37° C. and 5% CO2 for 144 hours. On the eighth day, the 96-well plate was taken out, and 150 μl of CellTiter-Glo® Luminescent Cell Viability Assay (Promega, G7573) was added to each well. The plate was left to stand at room temperature for 10 minutes, and the luminescence signal values were measured using a multi-label microplate reader (PerkinElmer, VICTOR 3). The IC50 values of the inhibitory activity of the compounds were calculated based on the concentrations and luminescence signal values of the compounds using Graphpad Prism software.
A graph of the chemiluminescence signal values versus the logarithmic concentrations of the compound was made using Graghpad Prism to obtain the IC50 values of the compound.

[3] = test system: MCF7 D538G; assay: Inhibition of proliferation of MCF7 cell expressing ERα D538G mutant; assay type: cell-based; conditions: Homo sapiens, 144 hours; for Emax: read-out: Maximum inhibition
Excerpt: (§2) The mutants ERα Y537S and ERα D538G of human estrogen receptor α (ERαs) protein were obtained by site-directed mutagenesis using the cDNA of wild-type ESR1 gene (Accession No. NM000125) as a template according to double-primer PCR. The primer sequences used for mutagenesis are as follows (the nucleotides underlined are the sites of mutagenesis):
(§3) The cDNA of mutant ESR1 was cloned into the target lentiviral vector pCDH-CMV-MCS-EF1-Puro (SBI, CD510B-1). The lentiviral plasmid with the mutant ESR1 gene sequence and the lentiviral packaging plasmids pVSV-G and pCMV-dR8.91 (SBI, LV500A-1) were transfected into HEK-293T cells (ATCC, CRL-3216) by Lipofectamine 3000 Transfection Reagent (ThermoFisher Scientific, Cat #L3000075). 48 hours after the transfection, the supernatant of the virus-containing DMEM high-glycemic medium (GE Healthcare, SH30243.01) containing 10% FBS was filtered, and ultracentrifuged to obtain the virus pellet. The virus pellet was resuspended in an appropriate amount of MEM medium (GE Healthcare, SH30024.01) containing 10% FBS, non-essential amino acids (SIGMA, M7145-100ML) and sodium pyruvate (SIGMA, S8636-100ML), and the resulting suspension was added to MCF7 cells (ATCC, HTB-22). Polybrene (SIGMA, H9268-5G) at a final concentration of 8 µg/ml was added, and the cells were incubated overnight. Two days after the transfection, […] puromycin (invitrogen, A11138-03) was added to the cell culture medium for resistance screening. After about two weeks, the MCF7 cell line capable of stably expressing ERαY537S and ERα D538G mutants was obtained.
as §1, with “MCF7 cells expressing ERα mutant were cultured” for “MCF7 cells (ATCC, HTB-22) were cultured”, “the experiment, the cells were” for “the experiment, MCF7 cells were”, “control containing 0.500 DMSO was” for “control containing 0.5% DMSO was”, “C. and […] for” for “C. and 5% CO2 for”, “and 150 of CellTiter-Glo®” for “and 150 μl of CellTiter-Glo®”

[4] = test system: MCF7 ERαY537S; assay: Inhibition of proliferation of MCF7 cell expressing ERα Y537S mutant; assay type: cell-based; conditions: Homo sapiens, 144 hours; for Emax: read-out: Maximum inhibition
Excerpt: as §2, §3
as §1, with “MCF7 cells expressing ERα mutant were cultured” for “MCF7 cells (ATCC, HTB-22) were cultured”, “the experiment, the cells were” for “the experiment, MCF7 cells were”, “control containing 0.500 DMSO was” for “control containing 0.5% DMSO was”, “C. and […] for” for “C. and 5% CO2 for”, “and 150 of CellTiter-Glo®” for “and 150 μl of CellTiter-Glo®”

[5] = molecular target: estrogen receptor ERα wild-type (Homo sapiens (Human), UniProt P03372); assay: Covalent modification of ERα wild-type LBD by high-resolution mass spectrometry; assay type: binding; conditions: after 24 hours; 2 μM protein, 10 μM compound, 4° C.
Sequence of estrogen receptor ERα wild-type (P03372 296-554): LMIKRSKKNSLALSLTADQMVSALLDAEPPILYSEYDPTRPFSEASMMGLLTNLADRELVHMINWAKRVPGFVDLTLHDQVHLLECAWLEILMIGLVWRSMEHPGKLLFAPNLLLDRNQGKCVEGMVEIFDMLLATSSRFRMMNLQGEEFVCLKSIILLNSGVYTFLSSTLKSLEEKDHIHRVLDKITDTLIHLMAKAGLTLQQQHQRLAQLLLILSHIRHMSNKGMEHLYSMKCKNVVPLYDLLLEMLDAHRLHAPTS
Method: (§4) The ligand binding domain (LBD, aa296-554) of estrogen receptor ERα wild-type and ERα Y537S mutant-type was expressed in E. coli and purified. 2 μM ERα wild-type or ERα Y537S mutant-type protein and 10 μM compound were added to a buffer solution containing 50 mM Tris-HCl, pH7.5, 150 mM NaCl, 1 mM TCEP and 5% glycerol and mixed well. The solution was incubated at 4° C. for 24 hours, followed by high-resolution mass spectrometry (Agilent Technologies, Agilent Q-tof 6530) assay. Alternatively, 1 μM ERα wild-type or ERα Y537S mutant-type protein and 3 μM compound were added to a buffer solution containing 50 mM Tris-HCl, pH7.5, 150 mM NaCl, 1 mM TCEP and 5% glycerol and mixed well. The solution was incubated at 37° C. for 15 minutes, followed by high-resolution mass spectrometry assay. In the mass spectrometry assay results, the peak whose molecular weight is the sum of the molecular weight of the protein and compound is the product of covalent modification. The percentage of covalent modification is obtained by calculating the ratio of […] to total protein.

[6] = molecular target: estrogen receptor ERα Y537S mutant-type (Homo sapiens (Human), UniProt P03372, Y537S); assay: Covalent modification of ERα Y537S mutant-type LBD by high-resolution mass spectrometry; assay type: binding; conditions: after 24 hours; 2 μM protein, 10 μM compound, 4° C.
Sequence of estrogen receptor ERα Y537S mutant-type (P03372 296-554 Y537S): as the sequence (P03372 296-554) above, with Y242S counted along it
Method: as §4

SMILES: CN(C)C(=O)/C=C/CN1CCC[C@@H](Oc2ccc(/C(=C(/CC(F)(F)F)c3ccc(C#N)cc3)c3ccc4[nH]nc(F)c4c3)cn2)C1 [Example 24, (E)-4-((R)-3-((5-((Z)-2-(4-Cyanophenyl)-4,4,4-trifluoro-1-(3-fluoro-1H-indazol-5-yl)but-1-en-1-yl)pyridin-2-yl)oxy)piperidin-1-yl)-N,N-dimethylbut-2-enamide]
- IC50 [1]: 9 nM
- IC50 [2]: 1 nM
- Emax [2]: 98%
- IC50 [3]: 8 nM
- Emax [3]: 94%
- IC50 [4]: 8 nM
- Emax [4]: 102%
- Covalent modification effect on the estrogen receptor ERα wild-type [5]: 90%
- Covalent modification effect on the estrogen receptor ERα Y537S mutant-type [6]: 99%

SMILES: CN(C)C(=O)/C=C/CN1CCC[C@@H](Oc2ccc(/C(=C(/CC(F)(F)F)c3ccc(C(F)(F)F)cc3)c3ccc4[nH]nc(F)c4c3)cn2)C1 [Example 22, (E)-N,N-Dimethyl-4-((R)-3-((5-((Z)-4,4,4-trifluoro-1-(3-fluoro-1H-indazol-5-yl)-2-(4-(trifluoromethyl)phenyl)but-1-en-1-yl)pyridin-2-yl)oxy)piperidin-1-yl)but-2-enamide]
- IC50 [1]: 24 nM
- IC50 [2]: 4 nM
- Emax [2]: 103%
- IC50 [3]: 15 nM
- Emax [3]: 93%
- IC50 [4]: 15 nM
- Emax [4]: 97%
- Covalent modification effect on the estrogen receptor ERα wild-type [5]: 95%
- Covalent modification effect on the estrogen receptor ERα Y537S mutant-type [6]: 100%

SMILES: CN(C)C(=O)/C=C/CN1CCC[C@@H](Oc2ccc(/C(=C(/CC(F)(F)F)c3ccc(S(C)(=O)=O)cc3)c3ccc4[nH]nc(F)c4c3)cn2)C1 [Example 23, (E)-N,N-Dimethyl-4-((R)-3-((5-((Z)-4,4,4-trifluoro-1-(3-fluoro-1H-indazol-5-yl)-2-(4-(methylsulfonyl)phenyl)but-1-en-1-yl)pyridin-2-yl)oxy)piperidin-1-yl)but-2-enamide]
- IC50 [1]: 13 nM
- IC50 [2]: 1 nM
- Emax [2]: 97%
- IC50 [3]: 7 nM
- Emax [3]: 101%
- IC50 [4]: 5 nM
- Emax [4]: 94%
- Covalent modification effect on the estrogen receptor ERα wild-type [5]: 95%
- Covalent modification effect on the estrogen receptor ERα Y537S mutant-type [6]: 99%

Stronger by IC50 [1], values ahead:

- IC50 [1]: 2 nM
- IC50 [2]: 0.4 nM
- IC50 [3]: 1 nM
- IC50 [4]: 2 nM
- Covalent modification effect on the estrogen receptor ERα wild-type [5]: 85%
- Covalent modification effect on the estrogen receptor ERα Y537S mutant-type [6]: 83%
SMILES: O=C(/C=C/CN1CCC[C@@H](Oc2ccc(/C(=C(/CC(F)(F)F)c3ccccc3)c3ccc4[nH]nc(F)c4c3)cn2)C1)N1CCOCC1 [Example 12, (E)-1-Morpholino-4-((R)-3-((5-((Z)-4,4,4-trifluoro-1-(3-fluoro-1H-indazol-5-yl)-2-phenylbut-1-en-1-yl)pyridin-2-yl)oxy)piperidin-1-yl)but-2-en-1-one]
- Emax [2]: 108%
- Emax [3]: 96%
- Emax [4]: 104%

- IC50 [1]: 4 nM
- IC50 [2]: 1.1 nM
- IC50 [3]: 3 nM
- IC50 [4]: 6 nM
SMILES: CN(C)C(=O)/C=C/CN[C@H]1CCN(c2ccc(/C(=C(/CC(F)(F)F)c3ccccc3)c3ccc4[nH]nc(F)c4c3)cn2)C1 [Example 35, (E)-N,N-Dimethyl-4-(((S)-1-(5-((Z)-4,4,4-trifluoro-1-(3-fluoro-1H-indazol-5-yl)-2-phenylbut-1-en-1-yl)pyridin-2-yl)pyrrolidin-3-yl)amino)but-2-enamide]
- Emax [2]: 105%
- Emax [3]: 104%
- Emax [4]: 97%

- IC50 [1]: 4 nM
- IC50 [2]: 2 nM
- IC50 [3]: 9 nM
- IC50 [4]: 9 nM
SMILES: O=C(/C=C/CNC1(COc2ccc(/C(=C(/CC(F)(F)F)c3ccccc3)c3ccc4[nH]nc(F)c4c3)cn2)CC1)N1CCCCC1 [Example 3, (E)-1-(Piperidin-1-yl)-4-((1-(((5-((Z)-4,4,4-trifluoro-1-(3-fluoro-1H-indazol-5-yl)-2-phenylbut-1-en-1-yl)pyridin-2-yl)oxy)methyl)cyclopropyl)amino)but-2-en-1-one]
- Emax [2]: 101%
- Emax [3]: 96%
- Emax [4]: 93%

- IC50 [1]: 0.5 nM
- IC50 [2]: 0.15 nM
- IC50 [3]: 0.5 nM
- IC50 [4]: 1 nM
SMILES: CCN(C/C=C/C(=O)N(C)C)C1(COc2ccc(/C(=C(/CC(F)(F)F)c3ccccc3)c3ccc4[nH]nc(F)c4c3)cn2)CC1 [Example 6, (E)-4-(Ethyl(1-(((5-((Z)-4,4,4-trifluoro-1-(3-fluoro-1H-indazol-5-yl)-2-phenylbut-1-en-1-yl)pyridin-2-yl)oxy)methyl)cyclopropyl)amino)-N,N-dimethylbut-2-enamide]
- Emax [2]: 94%
- Emax [3]: 98%
- Emax [4]: 102%
